ChEMBL document CHEMBL1201862, “PubChem BioAssay data set” (2004)
The source made the active and inactive calls.

Tests used:
[1] = target: T1, Oxysterols receptor LXR-beta (Homo sapiens, UniProt P55055); assay type: functional, cell-based;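 further: agonist activity at LXR measured by a cell-based luminescence readout across a dose range, run as a counterscreen for daf-12 agonists; HEK293 cells with Gal4-LXR fusion and GAL4-driven luciferase reporter; potency for activation of Gal4-LXR reporter so compounds are agonists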
T1 sequence (P55055 whole entry): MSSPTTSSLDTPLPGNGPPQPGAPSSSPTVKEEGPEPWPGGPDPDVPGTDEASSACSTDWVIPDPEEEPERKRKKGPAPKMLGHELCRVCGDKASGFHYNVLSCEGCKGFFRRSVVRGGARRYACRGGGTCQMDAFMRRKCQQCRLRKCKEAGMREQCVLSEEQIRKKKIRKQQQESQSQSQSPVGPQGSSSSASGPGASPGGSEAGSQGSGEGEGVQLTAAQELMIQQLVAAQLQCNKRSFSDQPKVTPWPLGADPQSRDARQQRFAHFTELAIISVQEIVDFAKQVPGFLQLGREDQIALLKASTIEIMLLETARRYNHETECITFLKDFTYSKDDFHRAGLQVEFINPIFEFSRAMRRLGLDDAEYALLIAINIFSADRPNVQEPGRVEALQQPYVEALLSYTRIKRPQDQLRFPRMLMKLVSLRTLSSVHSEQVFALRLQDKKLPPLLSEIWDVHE

[2] = target: Glyceraldehyde-3-phosphate dehydrogenase (Homo sapiens, UniProt P04406)
Sequence of Glyceraldehyde-3-phosphate dehydrogenase (P04406 whole entry): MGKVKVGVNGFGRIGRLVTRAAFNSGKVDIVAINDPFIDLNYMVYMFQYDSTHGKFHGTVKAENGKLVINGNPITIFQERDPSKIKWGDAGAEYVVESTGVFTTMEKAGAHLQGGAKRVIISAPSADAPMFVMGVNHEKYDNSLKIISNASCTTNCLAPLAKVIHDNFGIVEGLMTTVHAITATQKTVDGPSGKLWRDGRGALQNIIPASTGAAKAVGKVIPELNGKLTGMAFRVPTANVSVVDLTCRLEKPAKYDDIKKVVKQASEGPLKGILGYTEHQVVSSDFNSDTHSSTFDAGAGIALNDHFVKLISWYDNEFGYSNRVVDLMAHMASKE

[3] = target: T2, Trace amine-associated receptor 1 (Homo sapiens, UniProt Q96RJ0); test: Fluorescence-based cell-based high throughput dose response assay to identify agonists of the human trace amine associated receptor 1 (TAAR1).; assay type: functional
T2 sequence (Q96RJ0 whole entry): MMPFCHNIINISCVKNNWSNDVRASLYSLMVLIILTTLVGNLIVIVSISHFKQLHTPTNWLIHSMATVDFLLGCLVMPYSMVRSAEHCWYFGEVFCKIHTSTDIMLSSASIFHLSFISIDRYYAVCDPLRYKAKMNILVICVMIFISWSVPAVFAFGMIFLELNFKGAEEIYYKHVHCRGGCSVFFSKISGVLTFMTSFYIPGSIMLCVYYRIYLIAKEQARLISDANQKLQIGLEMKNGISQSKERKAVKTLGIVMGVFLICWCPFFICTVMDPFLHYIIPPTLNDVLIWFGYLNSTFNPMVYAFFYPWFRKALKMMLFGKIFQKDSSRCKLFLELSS

[4] = cells; assay type: functional, cell-based
[5] = target: T2, Trace amine-associated receptor 1; test: Counterscreen for agonists of the human trace amine associated receptor 1 (hTAAR1): Fluorescence-based cell-based high throughput dose response assay to identify hTAAR1 agonist that also desensitize TAAR1 receptor response.; assay type: functional
[6] = cells; assay type: functional, cell-based; remark: listed apart in the source
[7] = target: T3, Protein RecA (Mycobacterium tuberculosis, UniProt P9WHJ3); test: Fluorescence Cell-Free Homogeneous Dose Retest to Identify Inhibitors of RecA-Intein Splicing Activity. [Related pubchem assays (depositor defined):AID2097, AID2223, AID489010, AID492950]; assay type: functional
T3 sequence (P9WHJ3 whole entry): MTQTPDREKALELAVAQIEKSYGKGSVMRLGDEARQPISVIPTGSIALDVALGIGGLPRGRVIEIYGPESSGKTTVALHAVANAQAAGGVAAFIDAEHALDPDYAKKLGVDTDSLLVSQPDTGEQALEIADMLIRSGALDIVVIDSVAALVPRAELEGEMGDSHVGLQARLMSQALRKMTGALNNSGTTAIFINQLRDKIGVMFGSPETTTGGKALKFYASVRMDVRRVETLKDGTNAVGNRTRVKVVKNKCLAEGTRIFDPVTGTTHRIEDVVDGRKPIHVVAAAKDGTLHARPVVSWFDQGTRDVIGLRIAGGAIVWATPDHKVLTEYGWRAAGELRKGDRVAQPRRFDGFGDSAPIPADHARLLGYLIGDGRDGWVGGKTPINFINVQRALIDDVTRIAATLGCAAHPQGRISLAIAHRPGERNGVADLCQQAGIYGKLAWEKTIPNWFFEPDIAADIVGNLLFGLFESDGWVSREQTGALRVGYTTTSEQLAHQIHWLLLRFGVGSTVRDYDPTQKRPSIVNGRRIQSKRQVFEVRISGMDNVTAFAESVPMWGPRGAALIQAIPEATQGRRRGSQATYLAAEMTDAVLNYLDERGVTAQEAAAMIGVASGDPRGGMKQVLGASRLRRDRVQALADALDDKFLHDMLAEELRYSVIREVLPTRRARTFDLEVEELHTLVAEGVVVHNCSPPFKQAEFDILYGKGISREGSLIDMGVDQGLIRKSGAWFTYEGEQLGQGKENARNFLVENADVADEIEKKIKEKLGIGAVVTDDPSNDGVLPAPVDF

[8] = target: Genome polyprotein (dengue virus type 2, UniProt P29990); test: flavivirus cap methylation enzyme inhibition – biochemical, confirmation dose response, primary screen (AID 588689); assay type: functional
Sequence of Genome polyprotein (P29990 2492-3391 limits assumed): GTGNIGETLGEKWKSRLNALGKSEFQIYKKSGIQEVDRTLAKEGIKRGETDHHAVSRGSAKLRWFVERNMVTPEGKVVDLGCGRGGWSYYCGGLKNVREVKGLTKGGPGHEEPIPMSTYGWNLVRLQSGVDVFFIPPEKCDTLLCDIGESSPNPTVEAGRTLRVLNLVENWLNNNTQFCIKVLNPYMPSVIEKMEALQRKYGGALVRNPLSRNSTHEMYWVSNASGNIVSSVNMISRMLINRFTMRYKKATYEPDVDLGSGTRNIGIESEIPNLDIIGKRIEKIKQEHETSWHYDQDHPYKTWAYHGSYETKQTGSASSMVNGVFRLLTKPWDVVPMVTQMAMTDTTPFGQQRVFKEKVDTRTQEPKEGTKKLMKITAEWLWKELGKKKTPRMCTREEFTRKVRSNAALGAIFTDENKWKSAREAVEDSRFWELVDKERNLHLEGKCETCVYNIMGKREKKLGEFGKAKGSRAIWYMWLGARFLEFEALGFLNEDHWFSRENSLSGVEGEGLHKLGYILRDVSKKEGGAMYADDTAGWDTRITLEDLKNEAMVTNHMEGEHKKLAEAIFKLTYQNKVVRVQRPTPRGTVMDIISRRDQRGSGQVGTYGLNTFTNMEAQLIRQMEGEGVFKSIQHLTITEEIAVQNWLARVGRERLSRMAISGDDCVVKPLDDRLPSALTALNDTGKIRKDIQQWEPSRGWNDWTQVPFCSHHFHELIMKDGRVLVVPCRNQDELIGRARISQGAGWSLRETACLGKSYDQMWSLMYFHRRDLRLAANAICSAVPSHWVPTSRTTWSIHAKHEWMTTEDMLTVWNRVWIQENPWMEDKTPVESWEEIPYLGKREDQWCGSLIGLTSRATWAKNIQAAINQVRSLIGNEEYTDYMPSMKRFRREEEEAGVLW

[9] = target: T4, Replicative DNA helicase DnaB (Mycobacterium tuberculosis, UniProt P9WMR3); test: DnaB intein splicing inhibitors, dose response, biochemical, cell-free fluorescence (AID 449749); assay type: functional
T4 sequence (P9WMR3 whole entry): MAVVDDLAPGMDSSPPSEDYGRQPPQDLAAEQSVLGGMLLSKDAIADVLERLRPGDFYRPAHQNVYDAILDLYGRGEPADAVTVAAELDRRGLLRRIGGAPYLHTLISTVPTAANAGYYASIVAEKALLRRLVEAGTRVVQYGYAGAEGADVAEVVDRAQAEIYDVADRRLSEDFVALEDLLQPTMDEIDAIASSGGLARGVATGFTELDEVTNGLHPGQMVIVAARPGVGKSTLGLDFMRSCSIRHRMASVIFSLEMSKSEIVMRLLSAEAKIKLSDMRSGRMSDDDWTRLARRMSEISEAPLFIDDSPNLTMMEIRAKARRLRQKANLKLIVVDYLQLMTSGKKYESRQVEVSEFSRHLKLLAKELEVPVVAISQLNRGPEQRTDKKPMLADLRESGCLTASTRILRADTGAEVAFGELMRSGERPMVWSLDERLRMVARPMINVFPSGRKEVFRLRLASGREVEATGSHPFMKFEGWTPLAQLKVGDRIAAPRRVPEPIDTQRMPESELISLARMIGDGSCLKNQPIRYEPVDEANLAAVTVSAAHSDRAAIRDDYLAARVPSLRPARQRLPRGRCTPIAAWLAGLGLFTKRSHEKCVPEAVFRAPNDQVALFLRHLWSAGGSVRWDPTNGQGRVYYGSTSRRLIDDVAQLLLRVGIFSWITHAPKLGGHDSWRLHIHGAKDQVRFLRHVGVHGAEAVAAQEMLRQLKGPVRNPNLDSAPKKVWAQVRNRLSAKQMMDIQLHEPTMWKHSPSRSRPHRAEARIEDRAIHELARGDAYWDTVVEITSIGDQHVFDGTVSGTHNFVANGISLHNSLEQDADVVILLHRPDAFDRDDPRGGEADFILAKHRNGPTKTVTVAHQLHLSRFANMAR

[10] = HEK-293T viability loss after treatment – luminescence, T-cell screen hits, cytotoxicity control for TCR NF-kB inhibitor project, dose response (AID 489026); assay type: functional, cell-based;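 further: cells exposed to compound about 14 hours before the viability readout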
[11] = target: Heat shock protein HSP 90-alpha (Homo sapiens, UniProt P07900); assay type: functional, organism-based
[12] = target: Large T antigen (Simian virus 40, UniProt P03070); assay type: functional, Betapolyomavirus macacae;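 further: Confirmatory-stage PubChem screen for compounds that inhibit SV40 T antigen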
Sequence of Large T antigen (P03070 whole entry): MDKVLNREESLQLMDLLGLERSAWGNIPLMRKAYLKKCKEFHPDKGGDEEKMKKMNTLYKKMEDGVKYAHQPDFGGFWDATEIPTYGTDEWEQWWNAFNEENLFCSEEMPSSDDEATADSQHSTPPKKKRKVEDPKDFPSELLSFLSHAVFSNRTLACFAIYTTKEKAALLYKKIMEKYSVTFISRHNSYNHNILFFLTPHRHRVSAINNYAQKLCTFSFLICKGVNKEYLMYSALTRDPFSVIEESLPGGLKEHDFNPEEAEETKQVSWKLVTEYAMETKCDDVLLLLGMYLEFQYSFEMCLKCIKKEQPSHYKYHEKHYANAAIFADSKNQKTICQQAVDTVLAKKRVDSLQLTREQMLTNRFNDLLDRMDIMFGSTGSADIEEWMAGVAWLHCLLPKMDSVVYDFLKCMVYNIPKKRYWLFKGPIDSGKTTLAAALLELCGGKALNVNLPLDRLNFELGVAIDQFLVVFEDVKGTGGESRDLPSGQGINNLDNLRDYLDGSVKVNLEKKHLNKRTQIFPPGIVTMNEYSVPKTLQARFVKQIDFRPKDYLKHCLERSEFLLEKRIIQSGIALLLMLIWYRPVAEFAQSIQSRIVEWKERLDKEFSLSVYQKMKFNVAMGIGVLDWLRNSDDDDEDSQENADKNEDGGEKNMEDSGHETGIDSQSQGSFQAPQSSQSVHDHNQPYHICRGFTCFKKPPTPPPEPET

[13] = target: T5, Zinc finger protein mex-5 (Caenorhabditis elegans, UniProt Q9XUB2); test: potency of MEX-5 RNA-binding blockers – biochemical, C. elegans, fluorescence polarization, dose response (AID 1960)
T5 sequence (Q9XUB2 whole entry): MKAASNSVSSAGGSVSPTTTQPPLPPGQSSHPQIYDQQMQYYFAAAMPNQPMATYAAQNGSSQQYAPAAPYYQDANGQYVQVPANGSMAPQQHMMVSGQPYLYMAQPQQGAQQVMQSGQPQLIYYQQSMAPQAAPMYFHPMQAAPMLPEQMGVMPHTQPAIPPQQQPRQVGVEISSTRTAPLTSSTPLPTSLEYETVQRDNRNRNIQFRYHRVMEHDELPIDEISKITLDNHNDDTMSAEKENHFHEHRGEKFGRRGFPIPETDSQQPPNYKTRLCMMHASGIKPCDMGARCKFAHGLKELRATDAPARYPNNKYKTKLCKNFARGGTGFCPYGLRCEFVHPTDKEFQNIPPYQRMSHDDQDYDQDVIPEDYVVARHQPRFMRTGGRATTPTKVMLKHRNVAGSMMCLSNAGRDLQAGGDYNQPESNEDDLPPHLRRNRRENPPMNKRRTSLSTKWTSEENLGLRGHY

[14] = target: T6, RNA-binding protein pos-1 (Caenorhabditis elegans, UniProt G5EF15); test: disruptors of C. elegans POS-1 RNA interaction – biochemical, fluorescence polarization, dose response (AID 1964);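 further: purified POS-1 fused to maltose binding protein made in E. coli; potency of compounds blocking POS-1 binding to fluorescent RNA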
T6 sequence (G5EF15 whole entry): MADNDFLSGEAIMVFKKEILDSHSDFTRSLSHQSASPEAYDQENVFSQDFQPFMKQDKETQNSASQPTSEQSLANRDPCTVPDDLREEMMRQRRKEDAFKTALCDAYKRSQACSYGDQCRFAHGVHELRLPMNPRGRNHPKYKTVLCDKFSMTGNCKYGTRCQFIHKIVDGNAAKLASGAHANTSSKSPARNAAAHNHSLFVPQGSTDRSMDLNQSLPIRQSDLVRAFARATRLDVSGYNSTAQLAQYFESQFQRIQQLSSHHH

| SMILES | EC50 [3] | IC50 [4] | IC50 [5] | EC50 [6] | further results |
| --- | --- | --- | --- | --- | --- |
| CCN1C(=O)/C(=C/Nc2ccccc2)SC1=S | – | – | – | – | EC50 [1]: > 67.5 µM (inactive) |
| COc1cccc(N2C(=O)C(Cl)=C(N3CCN(c4ccccc4)CC3)C2=O)c1 | – | – | – | – | IC50 [2]: > 50 µM (inconclusive) |
| COc1cccc(NC(=N)N)c1 | 1.87 µM (active) | > 29.9 µM (inactive) | 5.04 µM (active) | > 29.9 µM (inactive) | – |
| O=C(O)C1C2CCC(C2)C1C(=O)NCCC1=CCCCC1 (configuration not stated) | 6.32 µM (active) | > 29.9 µM (inactive) | > 29.9 µM (inactive) | > 29.9 µM (inactive) | – |
| Cc1cccc(N2C(=O)C(Cl)=C(N3CCOCC3)C2=O)c1 | – | – | – | – | IC50 [2]: > 50 µM (inconclusive); EC50 [7]: 1.9 µM (active); IC50 [8]: 34.5 µM (active); AC50 [9]: 6.69 µM (active) |
| O=C(CNC(=O)c1ccccc1F)N/N=C\C=C\c1ccccc1 | > 29.9 µM (inactive) | > 29.9 µM (inactive) | 9.57 µM (active) | > 29.9 µM (inactive) | – |
| CC1(C)Cc2nc3sc4c(=O)n(CC(=O)NCc5ccccc5)cnc4c3cc2CO1 | – | – | – | – | IC50 [10]: > 80 µM (inactive) |
| CC[C@H](C)/C=C/C1=CC2=C(Cl)C(=O)[C@@]3(C)OC(=O)C(C(=O)[C@H](C)[C@@H](C)O)=C3C2=CO1 | – | – | – | – | AC50 [11]: 7.41 µM (active); IC50 [12]: 44 µM (active) |
| COc1cccc(C)c1NC1=NCCO1 | 0.734 µM (active) | > 29.9 µM (inactive) | 4.12 µM (active) | > 29.9 µM (inactive) | – |
| COCCN1C(=O)/C(=C/c2c(OC)cc(OC)cc2OC)C(=O)N(c2ccccc2)C1=O | – | – | – | – | EC50 [13]: > 300 µM (not active); EC50 [14]: 131 µM (active) |
